The record followed here is patent publication US4299970A, “Oxy-alkylamino carboxylic esters” (Beecham Group Limited, priority 1974, dated 1981).

Assay [1] has as its system indomethacin-induced ulcer. The assay can be described thus: indomethacin-induced ulcer test in fasted rats. Type of assay: in vivo, rat. To be noted: 20 mg/kg, s.c., twice; 5 hour test; indomethacin 50 mg/kg, i.p. As for the experimental part:
d. Anti-ulcer activity was determined in a 5 hour indomethacin-induced (50 mg/kg, i.p.) ulcer test in fasted rats. Compound 63 inhibited ulceration by 71% when given at 20 mg/kg, s.c., twice during the course of the test.

Assay [2] has as its system femoral artery of the hind limb. Kind of assay: vasodilator activity in femoral artery of the hind limb (vascular resistance). Type of assay: in vivo, beagle dog. The conditions noted are these: dose range of 0.01-1 mg/kg, intra-arterially. As for the experimental part: (§1) b. The vasodilator activity of the compounds was determined in the femoral artery of the hind limb of the anaesthetised beagle dog. The method used was similar to that described by J. Nakano and J. R. McCurdy, (1967), J. Pharmac. Exp. Ther., 156, 538.
The compounds were administered into the iliac artery and the effects on both flow and pressure in the hind limb were recorded. Changes in vascular resistance (R) were calculated from the following expression: [formula]

The test system of assay [3] is guinea pig platelet aggregation induced by ADP. Kind of assay: inhibition of guinea pig platelet aggregation induced in vitro by ADP. To be noted: Cavia porcellus, ADP 5.45×10^-7 M, platelet rich plasma, 37° C. Type of assay: cell-based. As for the experimental part: a. The compounds were examined for their ability to inhibit guinea pig platelet aggregation induced, in vitro, by 5.45×10^-7 M adenosine diphosphate (ADP).
The method consisted of diluting the compound immediately before use from a 10 mg/ml solution in ethanol to a 1 mg/ml solution with saline and then adding the appropriate volume to 0.5 ml of platelet rich plasma. The mixture was stirred at 37° C. for 1 minute before 25 μl of an ADP solution was added to give a final ADP concentration of 5.45×10^-7 M. The aggregation response was then recorded relative to the control.

The test system of assay [4] is total peripheral resistance. Kind of assay: total peripheral resistance, intravenous. Type of assay: in vivo, beagle dog. The conditions noted are these: dose range of 0.01-10 mg/kg, intra-venously. As for the experimental part:
as §1
In other experiments the compounds were administered into the left femoral vein and the right femoral arterial pressure and cardiac output were monitored. From these experiments, total peripheral resistance (TPR) was calculated from the expression: [formula]

Assay [5] concerns pentagastrin-stimulated gastric acid secretion. Kind of assay: inhibition of pentagastrin-stimulated gastric acid secretion, anaesthetised perfused rat stomach (Ghosh and Schild preparation). Type of assay: in vivo. To be noted: intravenous. The source says: a. The compounds were examined for their ability to inhibit pentagastrin-stimulated gastric acid secretion in the anaesthetised, perfused rat stomach preparation (Ghosh and Schild preparation).
M. N. Ghosh and H. O. Schild, (1958), Brit. J. Pharmacol, 13, 54.
The compounds were given intravenously.

The next assay has as its system gastric acid secretion. The assay can be described thus: inhibition of gastric acid secretion in the pyloric ligated rat (Shay rat preparation). Type of assay: in vivo. The conditions noted are these: for ED50: sc. The text has this: b. The compounds were examined for their ability to inhibit gastric acid secretion in the pyloric ligated rat model (Shay rat preparation).
H. Shay, S. A. Komarov, S. S. Fels, D. Merance, M. Gruenstein and H. Siplet, (1945), Gastroenerology, 5, 43.

For assay [6], the system named is histamine-induced asphyxic collapse. The assay can be described thus: protection against aerosol administered, histamine-induced asphyxic collapse. Type of assay: in vivo, guinea pig. The text has this: b. The compounds were examined for their ability to protect against aerosol administered, histamine-induced asphyxic collapse in guinea pigs.
M. A. Wasserman and R. L. Griffen, (1975), Am. Rev. Resp. Dis., 111, 946.

Assay [7] relates to 5-hydroxy-tryptamine-induced bronchoconstriction. The assay can be described thus: inhibition of 5-hydroxytryptamine-induced bronchoconstriction (Konsett-Rossler preparation). Type of assay: in vivo, guinea pig. The conditions noted are these: Cavia porcellus; intravenous, 2 minutes prior to 5-hydroxytryptamine dose. As for the experimental part:
a. The compounds were examined for their ability to inhibit 5-hydroxy-tryptamine-induced bronchoconstriction in the anaesthetised, artifically respired guinea pig (Konsett-Rossler preparation).
H. Konsett and R. Rossler, (1940), Naunyn-Schneidebergs Arch. Exp. Path. Pharmak., 195, 71.
After preparation of the guinea pig, a dose of 5-hydroxytryptamine producing an adequate response was determined by dosing, i.v., every 6 minutes. This dose was usually 10 μg. After a standard response was obtained, compounds were given intra-venously 2 minutes prior to the next standard dose and dosing of 5-hydroxytryptamine was continued every 6 minutes until the response returned to control values.

Assay [8] has as its system gastric acid secretion, stimulated by pentagastrin infusion. The assay can be described thus: inhibition of pentagastrin-stimulated gastric acid secretion, chronic fistula rat preparation. Type of assay: in vivo. The conditions noted are these: 2-5 mg/kg, s.c. The source says: c. The compounds were examined for their ability to inhibit gastric acid secretion, stimulated by pentagastrin infusion, in the chronic fistula rat preparation.
P. H. Guth and R. Mendick, (1965), Amer. J. Gastroenterology, 44, 545.

The next assay has as its system arterial blood pressure. Kind of assay: effect on arterial blood pressure in the anaesthetised, normotensive rat. Type of assay: in vivo. To be noted: intravenous, dose range 0.001 → 1.0 mg/kg. How it is done: a. The effect of the compounds on arterial blood pressure was determined in the anaesthetised, normotensive rat. The rat preparation was similar to that desribed in "Pharmacological experiments on intact preparations", E. and S. Livingstone, Edinburgh and London, 1970, p. 63.
The active compounds were predominantly depressor agents in the normotensive rat.

For assay [9], the system named is human platelet aggregation induced by adenosine diphosphate (ADP). The assay can be described thus: inhibition of human platelet aggregation induced in vitro by ADP. Type of assay: cell-based. To be noted: 10^-4 M, platelet rich plasma, 37° C. As for the experimental part:
(§2) b. The compounds were examined for their ability to inhibit human platelet aggregation induced, in vitro, either by adenosine diphosphate (ADP) or collagen. The compounds were added in saline or dimethylformamide to platelet rich plasma at 37° C. to give a final concentration of 10^-4 M. After 3 minutes the platelets were challenged with ADP or collagen. The aggregation response was then recorded relative to the control.

The test system of another assay is blood pressure. The assay can be described thus: anti-hypertensive activity in the renal hypertensive rat. Type of assay: in vivo. To be noted: 100 mg/kg, orally. As for the experimental part:
c. The anti-hypertensive activity of the compounds was determined in the renal hypertensive rat. Rats were made hypertensive by nephrectomy and treatment with deoxycorticosterone acetate/NaCl. The compounds were administered orally to a group of 3 hypertensive rats at a dose level of 100 mg/kg and their blood pressure was monitored after 4, 6 and 24 hours.

The subject of assay [10] is gerbil colon; contraction to prostaglandin F2α. Kind of assay: prostaglandin antagonist activity on the isolated perfused gerbil colon (contraction to prostaglandin F2α). To be noted: Meriones unguiculatus; reduction of contraction to prostaglandin F2α; one minute pre-contact time. How it is done: The compounds were tested for prostaglandin-like and for prostaglandin antagonist activity on the isolated perfused gerbil colon preparation (smooth muscle). This has been shown by J. R. Weeks, J. R. Schultz and W. E. Brown, (1968), J. App. Physiol, 25, 783, to have greater precision and sensitivity than other preparations. A 15 mm portion of the descending colon is suspended in an organ bath and perfused with De Jalon's saline at 32° C. Compounds were given in a three minute cycle with a 45 second contact time and a 15 second washout time. Antagonist compounds were given with a one minute pre-contact time.
Antagonist activity was determined by measuring the percentage reduction of the contraction to two standard doses of prostaglandin F2α which gave responses between 20% and 80% of maximum response.

The subject of assay [11] is human platelet aggregation induced by collagen. The assay can be described thus: inhibition of human platelet aggregation induced in vitro by collagen. Type of assay: cell-based. How it is done: as §2
[12] abbreviates: subcutaneously twice, 3 hour Shay rat preparation.

The IC50 is the concentration that gives 50% inhibition. For orientation: ED50 means the dose at which the effect has come halfway, by size or by number of responders. In general, inhibition refers to the change of the read-out against control, counted positive when it falls.

Structures are written as SMILES. Values after ≈ are worked out from the molar mass of the structure shown. Where two headings read alike, the source gives them in different places.

Regarding `CCCCCCC(C)(O)CCN1C(=O)CC(=O)C1CCCCCCC(=O)OCC` (stereo not drawn) [Compound 63, 2-(6'-Ethoxycarbonyl-n-hexyl)-1-(3"-hydroxy-3"-methyl-n-nonyl)-pyrrolidin-3,5-dione], the inhibition of ulceration in assay [1] was found to be 71%. Besides, the vascular resistance entry in [2] is “decreased vascular resistance”. In addition, it took 1300 nM to reach half-maximal inhibition in assay [3] (IC50). Moreover, the “total peripheral resistance (TPR)” value in assay [4] is “decreased total peripheral resistance”. Further, the ED50 in assay [5] was 0.09 mg/kg; in the assay with gastric acid secretion (subcutaneously once, 3 hour Shay rat preparation, at the time of ligation, read-out: ED50, given once), 5.3 mg/kg; in the assay on gastric acid secretion (subcutaneously twice, 3 hour Shay rat preparation, at time of ligation and 1.5 hours after, read-out: ED50, given twice) it was 2.25 mg/kg; in assay [7], 0.008 mg/kg. Besides, the “activity when given intraduodenally” value with gastric acid secretion (intraduodenally, Shay rat preparation) is “active”. The “H^+ concentration” value in the assay on gastric acid secretion (setting [12]) was “decreasing the H^+ concentration”. In addition, in the assay with gastric acid secretion (setting [12]), the “total titratable acidity in the stomach” value is “lowered the total titratable acidity in the stomach”. In the assay with gastric acid secretion (setting [12]), the volume of secretion entry is on record as “inhibiting the volume of secretion”. The “protecting against histamine challenge” value in assay [6] is “very effective”. The inhibiting acid secretion result in [8] is “very effective”. For the same compound, in the assay on arterial blood pressure, the “% Depression at 1 mg/kg” value is recorded as 60%.
On to `CCCCCC(O)CCN1C(=O)CCC(=O)C1CCCCCCC(=O)OCC` (stereo not drawn) [Compound 73, 2-(6'-Ethoxycarbonyl-n-hexyl)-1-(3"-hydroxy-n-octyl)-piperidin-3,6-dione], for which the inhibition at 100 µM in assay [9] is 87%; in assay [11] (10^-4 M, collagen, platelet rich plasma, 37° C.) it was 100%. The “fall in blood pressure after 4 hours” value in the assay on blood pressure (4 hours) is on record as 16%. For the same compound, the “blood pressure after 6 hours” value with blood pressure (6 hours) was “risen to normal hypertensive levels”. The vascular resistance result in [2] is recorded as “decreased vascular resistance”. The half-maximal inhibitory concentration (IC50) in assay [3] amounted to 44000 nM; in [10] it was 3.4 µg/mL (≈ 8.55 µM); in assay [11] (Platelet, read-out: IC50 against collagen-induced aggregation) it was 2800 nM. In addition, in assay [4], the “total peripheral resistance (TPR)” value is given as “decreased total peripheral resistance”.
